Values quoted from earlier work as cited in patent publication US20110250132A1, “LIPOIC ACID METABOLITE: USEFUL FOR DRUG CARRIER, NANOPARTICLE CONJUGATE, IMAGING AND HYPERTHERMIA THERAPY” (priority 2010, published 2011).

Assays:
[1] = reduced form with two —SH groups
[2] = accumulates in all neuronal cell types
[3] = tested on: lens epithelial cells
[4] = tested on: insulin-resistant rat skeletal muscle
[5] = tested on: cataracts; conditions: rats

SMILES: O=C(O)CCCC[C@@H](S)CCS (racemic) [DHLA, dihydrolipoic acid]
- oxidation potential [1]: −0.29 v

SMILES: O=C(O)CCCCC1CCSS1 (stereo not drawn) [Alpha-lipoic acid]
- blood-brain barrier crossing [2]: readily crosses the blood-brain barrier
- preventing iron accumulation [3]: beneficial effects

SMILES: O=C(O)CCCC[C@@H]1CCSS1 [R-alpha-lipoic acid]
- enhancing insulin-stimulated glucose transport and metabolism [4]: more effective than S-alpha-lipoic acid
- preventing cataracts [5]: more effective than racemic alpha-lipoic acid and S-alpha-lipoic acid
